Measured values from patent US7589193B2, “C-aryl glucoside SGLT2 inhibitors and method” (Bristol-Myers Squibb Company, priority 2004, dated 2009).
Like-named read-outs stand apart in the source and are kept apart here.

How the values were obtained:
[1] = system: Chinese hamster ovary (CHO) cells; test: Cytogenetics study in Chinese hamster ovary cells, in vitro clastogenicity / chromosome aberration (Study C); conditions: 3 hr with/without S9, 20 hr without S9
Description: (§1) The following protocol was utilized to predict the in vitro clastogenicity activity of compounds of therapeutic interest.
(§2) Clastogenicity was predicted by determining the potential of compounds of interest to induce structural chromosome damage in Chinese hamster ovary (CHO) cells.
(§3) The vehicle control is dimethyl sulfoxide (DMSO). The positive controls were Mitomycin C for the 3-hr and 20-hr exposure without S9 activation and cyclophosphamide for the 3-hr exposure with S9 rat-liver enzymes. Both Mitomycin C and cyclophosphamide were diluted with sterile water.
(§4) Two stock solutions in DMSO of the compound of interest were prepared—one being a high concentration, the other low. Aliquots of the vehicle control, low and high dosing solutions were collected following treatment of the CHO cells and subsequently analyzed to determine the concentration of the compound of interest. […] Once the upper limit of solubility of the compound of interest was determined in DMSO, that DMSO solution is added to culture medium to determine effects on pH or osmmolality. […]
(§5) The DMSO stock solution of the compound of interest was 100× concentration of the highest test-article concentration to be used in the full assay. […] The cytotoxicity dose response observed in the range finding study determined the serial dilution factor for the five lower doses. […]

STZ diabetic rats = test: Determination of blood glucose effect in streptozotocin-treated diabetic rats (Study A); type: in vivo, rat (male Sprague Dawley); conditions: oral 0.1 mg/kg
Experimental: I. Protocol for Study A: Determination of Blood Glucose Effect in Streptozotocin-Treated Diabetic Rats
The following analysis was utilized to reasonably predict the impact on plasma glucose for the compounds analyzed in the matrix above.
Male Sprague Dawley rats (Charles River) weighing 250-275 g were made diabetic by a single intraperitoneal injection of streptozotocin (Sigma) at 65 mg/kg, prepared in fresh cold (4° C.) 0.01 M citrate buffer. Four days later, animals were bled in the fed state. Whole blood was collected via the tail tip and analyzed for glucose by the glucose oxidation method with a Glucometer Elite (Bayer). Mean blood glucose levels ranged from 450-550 mg/dl.
On the day of the experiment, the compound was dissolved in the vehicle comprised of 5% m-Pyrol, 20% PEG 400 and 20 mM Sodium Diphosphate. Rats were weighed, randomized into 4 groups with 6 rats in each group, and dosed orally with the vehicle or 0.1 mg/kg of the compound. The total volume for oral gavage was 1 ml/kg body weight. After dosing, the food was removed from the cages and the rats had access to water ad lib during the experiment. Blood samples were obtained from the tail tip at 0, 30, 60, 120, 180, 240 and 300 minutes following drug administration. Blood glucose was analyzed by the glucose oxidation method with a Glucometer Elite (Bayer).
A. Statistical Data Analysis
The calculation of mean blood glucose values and percent changes vs. vehicle at each time point were performed using Microsoft Excel. Statistical analyses (T tests, or ANOVA followed by Fisher's test) comparing drug-treated groups vs. vehicle controls) were performed using Microsoft Excel or the statistical program StatView. A p value of less that 0.05 was considered to be statistically significant.

[2] = Stability in presence of commonly used solid excipients under accelerated aging conditions (Study B); type: physicochemical; conditions: for Stability in a prototypical formulation: drug-excipient blends, accelerated aging conditions, 1 and 3 weeks, HPLC analysis
Description: II. Protocol for Study B: Stability Determination of Oxidatively Labile Therapeutic Agent in Presence of Commonly Used Solid Excipients, Under Accelerated Aging Conditions
The following procedure was utilized to access the chemical stability of the compound 3 in the presence of commonly used excipients and typical antioxidants.
The drug substance was triturated in a mortar pestle with the respective antioxidant, and then mixed in the dry state with other excipients listed in the following table. Sodium metabisulfite and butylated hydroxyl anisole (BHA) were used as antioxidants in this study. BHA was used at two levels, 0.01% w/w and 0.5% w/w, and sodium metabisulfite was used at 0.01% w/w. For samples stored at 40° C./[…] and HIL/uv, oxygen gas was purged into the vials and they were tightly capped. The drug-excipient blends (A-D) were placed under the different accelerated aging conditions listed within the second table for 1 and 3 weeks prior to HPLC analysis.

[3] = system: Chinese hamster ovary (CHO) cells
Description: as §1, §2, §3, §4, §5

Question: Which results are given for CCOc1ccc(Cc2cc([C@@H]3O[C@H](CO)[C@@H](O)[C@H](O)[C@H]3O)ccc2Cl)cc1 [Compound 4]?
Answer: In vitro clastogenic activity [1]: Yes; % Decrease of plasma glucose in STZ diabetic rats at 5 hr after an oral dose of 0.1 mg/kg vs. vehicle treated controls (STZ diabetic rats): 60%; Stability in a prototypical formulation [2]: Yes; Chemical stability in the presence of excipients commonly used in solid dosage forms [2]: chemically stable

Question: For CCc1ccc(Cc2cc([C@@H]3O[C@H](CO)[C@@H](O)[C@H](O)[C@H]3O)ccc2Cl)cc1 [Compound 1], which “% Decrease of plasma glucose in STZ diabetic rats at 5 hr after an oral dose of 0.1 mg/kg vs. vehicle treated controls” value (from here on “% Decrease of plasma glucose”) (STZ diabetic rats) is on record?
Answer: Its value is 62%.

Question: What about the “Stability in a prototypical formulation” value [2] of the same compound?
Answer: The value was “Yes”.

Question: And the “Chemical stability in the presence of excipients commonly used in solid dosage forms” value [2]?
Answer: The value was “chemically stable”.

Question: For CCc1ccc(Cc2cccc([C@@H]3O[C@H](CO)[C@@H](O)[C@H](O)[C@H]3O)c2)cc1 [Compound 5], which “In vitro clastogenic activity” value [3] is on record?
Answer: Its value is “Yes”.

Question: What about the “% Decrease of plasma glucose” value (STZ diabetic rats) of the same compound?
Answer: Its value is 34%.

Question: And the “Stability in a prototypical formulation” value [2]?
Answer: The value was “Yes”.

Question: And the “Chemical stability in the presence of excipients commonly used in solid dosage forms” value [2]?
Answer: Its value is “chemically stable”.

Question: With CSc1ccc(Cc2cc([C@@H]3O[C@H](CO)[C@@H](O)[C@H](O)[C@H]3O)ccc2C)cc1 [Compound 3] as the compound, how does the “% Decrease of plasma glucose” value (STZ diabetic rats) read?
Answer: The value was 59%.

Question: What about the “Stability in a prototypical formulation” value [2] of the same compound?
Answer: Its value is “No”.
